This passage reports GI50 and TGI results from PubChem BioAssay (NCI).

Each structure is given as a SMILES string. Several values for one entry are separate records, joined by “and”; a condition that tells them apart may be missing. Equal values may be shown once.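 Values below derive from 48-hour exposures of cells grown in 96-well plates, with endpoints linearly interpolated between the two concentrations bracketing the appropriate inhibition level. The concentration for 50% growth inhibition is given as GI50. TGI: concentration producing complete growth inhibition.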

Some test systems named below: A498 renal; A549 NSCLC; CCRF-CEM leukemia; HOP-62 NSCLC; K-562 leukemia; M14 melanoma; NCI-H226 lung; OVCAR-3 ovarian; SN12C renal; SNB-19 CNS.
Holding throughout (assay): inhibition of tumour cell growth, NCI panel, 48 h

Consider `CC(=O)/C(=C\c1c(-c2ccccc2)[nH]c2ccccc12)S(=O)(=O)c1ccccc1`, for which the GI50 with A498 renal is 5.44 µM; with A549 NSCLC it was 6.73 µM; in the test on CCRF-CEM leukemia, 1.4 µM; in the test on HOP-62 NSCLC, 1.18 µM; in the test with K-562 leukemia, 0.406 µM; in the test on M14 melanoma, 0.513 µM. In addition, the GI50 is 1.92 µM in the test with NCI-H226 lung, 1.54 µM with OVCAR-3 ovarian, 1.82 µM in the test on SN12C renal and 4.14 µM in the test with SNB-19 CNS. Further, the TGI in the test with A498 renal turned out to be 15.9 µM; with A549 NSCLC, 41.9 µM; in the test with CCRF-CEM leukemia, 4.78 µM; with HOP-62 NSCLC, 3.03 µM; in the test on K-562 leukemia it was 2.43 µM; with M14 melanoma, 2.15 µM. The TGI stood at 5.21 µM in the test with NCI-H226 lung, 4.52 µM with OVCAR-3 ovarian, 9.59 µM in the test on SN12C renal and 12.1 µM with SNB-19 CNS.

For `Cc1cc(O)cc(C)c1/C=C/c1cncc(C(=O)OC(C)(C)C)c1`, the GI50 was 8.09 µM in the test with A498 renal; 9.23 µM in the test on A549 NSCLC; 3.13 µM in the test on CCRF-CEM leukemia; greater than 19.4 µM in the test with HOP-62 NSCLC; 11.6 µM in the test on K-562 leukemia; greater than 24 µM in the test on M14 melanoma. In addition, the GI50 is greater than 25 µM in the test with NCI-H226 lung, 17 µM with OVCAR-3 ovarian, 12.6 µM in the test with SN12C renal and greater than 25 µM in the test with SNB-19 CNS. Also, the TGI in the test on A498 renal, with A549 NSCLC, with CCRF-CEM leukemia, in the test on HOP-62 NSCLC, in the test on K-562 leukemia and with M14 melanoma was greater than 25 µM in each case. Also, the TGI with NCI-H226 lung, with OVCAR-3 ovarian, with SN12C renal and in the test on SNB-19 CNS was greater than 25 µM each time.

For `CN1CCN(c2ccc(C(=O)Nc3cccc(C#Cc4cccc5[nH]nc(N)c45)c3)cc2C(F)(F)F)CC1`, the GI50 in the test with A498 renal was 2.22 µM; in the test with A549 NSCLC it was 0.767 µM; in the test with CCRF-CEM leukemia, 1.16 µM; with HOP-62 NSCLC, 0.792 µM; in the test with K-562 leukemia it was 0.0235 µM; in the test on M14 melanoma, 0.636 µM. The GI50 was 2.12 µM with NCI-H226 lung, 1.38 µM in the test with OVCAR-3 ovarian, 1.2 µM in the test on SN12C renal and 1.68 µM in the test with SNB-19 CNS. Besides, the TGI turned out to be 6.76 µM in the test with A498 renal; 2.02 µM in the test with A549 NSCLC; 4.6 µM in the test on CCRF-CEM leukemia; 2.19 µM in the test with HOP-62 NSCLC; 0.717 µM in the test on K-562 leukemia; 1.34 µM in the test with M14 melanoma. The TGI turned out to be 6.94 µM in the test on NCI-H226 lung, 4.73 µM with OVCAR-3 ovarian, 4.54 µM in the test with SN12C renal and 4.92 µM with SNB-19 CNS.

On to `CN(C)c1ccc(C(=C2C=CC(=[N+](C)C)C=C2)c2ccccc2Cl)cc1`, for which the GI50 is 0.289 µM with A498 renal; 0.248 µM in the test with A549 NSCLC; 0.402 µM with CCRF-CEM leukemia; 0.292 µM in the test on HOP-62 NSCLC; 0.244 µM with K-562 leukemia; 0.274 µM with M14 melanoma. Further, the GI50 with NCI-H226 lung was 0.43 µM; with OVCAR-3 ovarian, 0.261 µM; in the test with SN12C renal, 0.239 µM; in the test on SNB-19 CNS, 0.348 µM. Further, the TGI was found to be 1.04 µM with A498 renal; 4.24 µM in the test with A549 NSCLC; 5.06 µM in the test with CCRF-CEM leukemia; 0.949 µM in the test on HOP-62 NSCLC; 3.79 µM with K-562 leukemia; 0.942 µM in the test with M14 melanoma. In addition, the TGI in the test on NCI-H226 lung was determined as 2 µM; in the test on OVCAR-3 ovarian it was 0.699 µM; in the test on SN12C renal it was 1.67 µM; in the test on SNB-19 CNS, 1.29 µM.

Turning to `COc1ccc(/C(=N/O)c2cc(OC)c(OC)c(OC)c2)c(OC)c1N`, the GI50 in the test with A498 renal was 4.01 µM; in the test with A549 NSCLC it was 8.21 µM; with CCRF-CEM leukemia it was 4.09 µM; in the test with HOP-62 NSCLC, 6.55 µM; in the test on K-562 leukemia, 3.14 µM; with M14 melanoma, 2.7 µM. In addition, the values for the GI50 in the test on NCI-H226 lung, in the test on SN12C renal and with SNB-19 CNS were greater than 100 µM, 15.4 µM and 5.32 µM, respectively. Moreover, the TGI with A498 renal, in the test on A549 NSCLC, with CCRF-CEM leukemia, in the test on HOP-62 NSCLC, with K-562 leukemia and in the test on M14 melanoma was greater than 100 µM throughout. Besides, the TGI with NCI-H226 lung, with SN12C renal and in the test with SNB-19 CNS was greater than 100 µM each time.

Take `O=C1N[C@H]2[C@H](O)[C@H](O)[C@@H](O)[C@H](O)[C@@H]2c2cc3c(c(O)c21)OCO3`: the GI50 is 0.23 µM and 0.796 µM in the test with A498 renal; 0.407 µM and 3.51 µM in the test on A549 NSCLC; 0.137 µM with CCRF-CEM leukemia; 0.246 µM and 0.0935 µM with HOP-62 NSCLC; 0.216 µM and 0.214 µM in the test with K-562 leukemia; 0.229 µM and 0.0346 µM in the test on M14 melanoma. The GI50 with NCI-H226 lung was 0.273 µM and 0.365 µM; in the test with OVCAR-3 ovarian it was 0.275 µM and 0.347 µM; with SN12C renal it was 0.206 µM and 0.246 µM; with SNB-19 CNS, 0.172 µM and 0.125 µM. The TGI is 0.767 µM and 0.485 µM with CCRF-CEM leukemia; 0.93 µM and 0.532 µM and 0.182 µM in the test with HOP-62 NSCLC; 1.59 µM and 0.195 µM in the test on NCI-H226 lung; 2.11 µM and 0.28 µM in the test on SN12C renal; 0.939 µM and 0.197 µM in the test with SNB-19 CNS.

For `CCOP(=O)(CC(=O)C1=C(O)C(CCCCNC(=O)OC(C)(C)C)N(Cc2ccccc2)C1=O)OCC` (stereo not drawn), the TGI with A498 renal, with A549 NSCLC, with CCRF-CEM leukemia, in the test on HOP-62 NSCLC, in the test with K-562 leukemia and in the test on M14 melanoma was greater than 100 µM in each case. Besides, the TGI in the test with NCI-H226 lung, in the test with OVCAR-3 ovarian and in the test on SN12C renal was greater than 100 µM in each case.

On to `O=C(Nc1cccc(-n2cc(-c3ccncc3)c(-c3ccc(O)c(Cl)c3)n2)c1)c1ccc(Cl)c(Cl)c1`, for which the GI50 was 1.94 µM in the test on A498 renal; 6.55 µM in the test on A549 NSCLC; 4.08 µM in the test with CCRF-CEM leukemia; 20.3 µM in the test with HOP-62 NSCLC; 3.48 µM in the test on K-562 leukemia; 5.26 µM with M14 melanoma. The GI50 with NCI-H226 lung was 8.06 µM; in the test on SN12C renal, 23.1 µM; in the test with SNB-19 CNS, 29.7 µM. Further, the TGI with A498 renal is 89.9 µM; in the test with A549 NSCLC, greater than 100 µM; in the test with CCRF-CEM leukemia, greater than 100 µM; with HOP-62 NSCLC, greater than 100 µM; in the test on K-562 leukemia it was greater than 100 µM; in the test with M14 melanoma, 54.6 µM. Besides, the TGI in the test on NCI-H226 lung, in the test on SN12C renal and in the test with SNB-19 CNS was greater than 100 µM throughout.

Take `COC(=O)[C@@H](OC)[C@@H]1Cc2cc3cc(OC4CC(OC5CC(O)C(O)C(C)O5)C(O)C(C)O4)c(C)c(O)c3c(O)c2C(=O)[C@H]1OC1CC(OC2CC(OC3CC(C)(O)C(O)C(C)O3)C(O)C(C)O2)C(O)C(C)O1` (stereo partly drawn): the GI50 in the test with A498 renal was 0.0277 µM; with A549 NSCLC, 0.0484 µM; with CCRF-CEM leukemia it was 0.035 µM; in the test with HOP-62 NSCLC it was 0.0312 µM; with K-562 leukemia it was 0.0407 µM; with M14 melanoma, 0.0382 µM. Further, the GI50 in the test with NCI-H226 lung is 0.0384 µM; in the test on SN12C renal, 0.0389 µM; in the test on SNB-19 CNS, 0.0449 µM. For the same compound, the TGI in the test on A498 renal was 0.0717 µM; in the test on A549 NSCLC, greater than 16.5 µM; in the test with CCRF-CEM leukemia, greater than 7.4 µM; in the test with HOP-62 NSCLC, 1.8 µM; with K-562 leukemia, greater than 16.5 µM; in the test on M14 melanoma, 0.157 µM. Moreover, the TGI in the test on NCI-H226 lung is 0.125 µM; in the test on SN12C renal, greater than 16.5 µM; with SNB-19 CNS, greater than 8.89 µM.

For the compound `CCCCCCCCCCCCCCNCC(OCC)OCC`, the TGI is 28.5 µM in the test on A498 renal; 37.6 µM in the test on A549 NSCLC; 24.5 µM in the test on CCRF-CEM leukemia; 31.6 µM in the test on HOP-62 NSCLC; 27.5 µM with M14 melanoma; 37.6 µM in the test with NCI-H226 lung. For the same compound, the TGI with OVCAR-3 ovarian was 33.7 µM; with SN12C renal, 27.9 µM; with SNB-19 CNS it was 31.8 µM.

As for `C#CC(=O)OCC#CCOC(=O)C#C`, the TGI in the test with A498 renal is greater than 100 µM; in the test on A549 NSCLC, greater than 100 µM; with CCRF-CEM leukemia, 35.4 µM; in the test on HOP-62 NSCLC it was 46.1 µM; with M14 melanoma, 49.5 µM; in the test on NCI-H226 lung, 40.3 µM. Also, the TGI in the test with OVCAR-3 ovarian is 34.7 µM; in the test with SN12C renal it was 82.3 µM; with SNB-19 CNS, greater than 100 µM.

For `COC(=O)C(=O)C(CC(=O)Nc1cccc(C(F)(F)F)c1)C(=O)OC` (stereo not drawn), the TGI in the test with A498 renal, with A549 NSCLC, in the test on CCRF-CEM leukemia, in the test with HOP-62 NSCLC, in the test on K-562 leukemia and with M14 melanoma was greater than 100 µM in each case. Also, the TGI with NCI-H226 lung, in the test on SN12C renal and in the test on SNB-19 CNS was greater than 100 µM each time.

Consider `COC(=O)/C(=C\c1c(-c2ccccc2)[nH]c2ccccc12)S(C)(=O)=O`, for which the GI50 with A498 renal is 6.56 µM; with A549 NSCLC it was 5.26 µM; in the test on CCRF-CEM leukemia it was 7.62 µM; in the test with HOP-62 NSCLC, 10.7 µM; with M14 melanoma, 3.34 µM; in the test on NCI-H226 lung, 4.99 µM. For the same compound, the GI50 is 1.92 µM in the test with OVCAR-3 ovarian, 3.14 µM with SN12C renal and 8.68 µM in the test with SNB-19 CNS. The TGI was 21.3 µM in the test with A498 renal; 98.4 µM with A549 NSCLC; greater than 100 µM in the test with CCRF-CEM leukemia; 36.7 µM in the test on HOP-62 NSCLC; greater than 100 µM in the test with M14 melanoma; 64.5 µM in the test with NCI-H226 lung. Further, the TGI was 3.97 µM with OVCAR-3 ovarian, 32 µM with SN12C renal and greater than 100 µM with SNB-19 CNS.
